# From patent US9943592B2, “Vaccine adjuvants from self-assembling peptides” (priority 2011, dated 2018)
# Square brackets hold non-standard residues; d marks the D form. Ends that are not written are not given here.
# What was measured:
# [1] = hydrogel formation of peptide solutions (ion or pH trigger); assay type: physicochemical; conditions: 0.005M peptide concentration
# Description: (§1) The synthesized peptide was dissolved in DI water to a concentration of 5 mM by adjusting the pH to 8.0-10.0 with 1 M NaOH (Sigma). The h5e acidic solution and acidic h9e hydrogel were made by adjusting the pH to 4.0 with 1 M HCl (Sigma). The h9e Ca^2+ hydrogel was prepared by adding CaCl2 to a basic h9e peptide solution (molar ratio of peptide and Ca^2+ was 1:10, final pH was 7.0 to 9.0). The same method was used to prepare the h5e Ca^2+ solution.
# [2] = rheology of peptide hydrogels (storage modulus G', amplitude sweep, temperature profile); assay type: physicochemical
# Description: as §1
# The storage, G′, and loss, G″, moduli of h9e acidic and Ca^2+ hydrogels were determined on a rheometer system C-VOR 150 (Malvern instruments, Malvern, Worcestershire WR141XZ, United Kingdom) with a 20-mm diameter parallel plate geometry through frequency sweep (strain 1%, frequency 0.01 to 10 Hz, temperature 25° C.), amplitude sweep (strain 1 to 500%, frequency 1 Hz, temperature 25° C.), and temperature profile (strain 1%, frequency 1 Hz, Temperature 5° C., 20° C., 37° C., 50° C., 75° C., and 90° C.) measurements. The multiple amplitude sweep experiments were conducted to test the moduli recovery of peptide hydrogels. The time gap between every two tests was 10, 30, and 60 seconds for h9e Ca^2+ hydrogel.
# PRRSV [3] = experiment: dynamic viremia after vaccination in pigs; conditions: pig, in vivo
# Description: (§2) A stock solution of h9e peptide (concentration 1.75% by weight in water) was prepared. For the active agent, 2X Ingelvac PRRS MLV (Boehringer Ingelheim Vetmedica, St. Joseph, Mo.) was used. The vaccine was rehydrated by adding half of the contents of the accompanying liquid diluent to the vial containing the virus. Medium was then prepared by adding 0.3 ml bovine serum to 7.2 ml MEM medium (ion source). Next, 5 ml of the peptide stock solution was added to the medium and mixed well. This was then mixed with the vaccine solution. The final concentration of h9e as adjuvant was 0.35% by weight, and the final concentration of serum was […] by weight.
# (§3) Vaccines were also prepared using a commercially-available adjuvant, Montanide™ Gel 01 (aqueous polymeric gel veterinary adjuvant, Seppic Inc., Fairfield, N.J.), or a published peptide hydrogel, designated herein as A1/2 (SEQ ID NO:28, corresponding to the N-terminal region of mineral directing gelator (MDG) 1; Gungormus, et al., Biomaterials 31 (2010) 7266-7274).
# (§4) 55 PRRSV serum negative pigs were initially divided into 5 vaccination groups and vaccinated on Day 0. […]
# (§5) At Day 0, all pigs were weighed, and weight was monitored weekly and recorded on Days 7, 14, 21, and 28. […] Body temperature and clinical signs were monitored daily and recorded. […]
# PRRSV [4] = experiment: dynamic viremia after challenge in pigs; assay type: in vivo; conditions: challenge with VR2332 or MN184a on day 28
# Description: as §2, §3, §4, §5
# PRRSV [5] = experiment: IDEXX ELISA Ab titer in pigs; assay type: in vivo
# Description: as §2, §3, §4, §5
# [6] = solubility, stability and morphology of peptide and hydrogel; assay type: physicochemical; conditions: for solubility of peptide in water: until pH adjusted to neutral or basic
substance,measurement,setting,value
LLLLLKKKKKKKKKK (Synthetic diblock peptide) [L5K10],hydrogel formation in Ca^2+ solution,[1],no hydrogel formation was observed
FLIVIGSIIKKKKKKKKKK (Synthetic peptide adjuvant) [h9e variant with eD2 region replaced by K10],G' of hydrogel in basic pH,[2],55.0 ± 0.9 Pa
"A1/2: published peptide hydrogel, N-terminal region of mineral directing gelator (MDG) 1 (VKVKVKVKVPPTKVEVKVKV; Derivative of N-terminal region of mineral directing gelator (MDG) 1)",viremia after vaccination compared to the MLV group,PRRSV [3],no difference
same,viremia after challenge,PRRSV [4],not
same,"ELISA Ab titer after vaccination, compared among groups",PRRSV [5],lowest
L5GSIIK10: L5K10 diblock peptide with GSII inserted (LLLLLGSIIKKKKKKKKKK),hydrogel formation in Ca^2+ solution,[1],no hydrogel formation was observed
"FLIVIGSIIGPGGDGPGGD [h9e, FLIVIGSIIGPGGDGPGGD]",temperature stability of hydrogel,[6],up to 90 °C
same,water solubility of hydrogel,[6],water soluble
same,solubility of peptide in water,[6],insoluble in water
same,general health / biological safety,immunized mice until sera collection,biologically safe
same,injection site reaction (redness or swelling),vaccinated mice,No injection site reaction
"FLIVIGPGGDGPGGD [h5e, FLIVIGPGGDGPGGD]",solubility of peptide in water,[6],insoluble in water
L5PP^DK10: L5K10 diblock peptide with sharp turning segment PP^D inserted (LLLLLP[dP]KKKKKKKKKK),hydrogel formation in Ca^2+ solution,[1],no hydrogel formation was observed
GPGGDGPGGD (Hydrophilic region derived from spider flagelliform silk protein) [eD2],hydrogel formation in Ca^2+ solution,[1],not able to form hydrogels
